Data on one compound can be found in patent US4923878A, “Quinolizine sulfonamides used against certain neoplastic disease states” (Merck & Co., Inc., priority 1988, dated 1990).

The subject of one experiment is A498. Briefly: MTT-microculture tetrazolium assay, growth inhibition of renal A498 cells. The class given is cell-based. The settings on record: Homo sapiens, 144 h; Renal cell line A498; 6 days at 37° C.; 0.5% DMSO. The source says: (§1) Tests carried out in accordance with the procedures described in Cancer Research 48, 589-601, February 1988, Feasibility of Drug Screening with Panels of Human Tumor Cell Lines Using a Microculture Tetrazolium Assay--Shoemaker et al., and Cancer Research 48, 4827-4833, September 1988, Evaluation of a Soluble Tetrazolium/Formazan Assay for Cell Growth and Drug Sensitivity in Culture using Human and other Tumor Cell Lines--Shoemaker et al. A brief description of this procedure follows. For further details refer to the above identified articles.
(§2) The procedure was carried out on cell lines from various disease types. Cell lines were maintained as stocks in RPMI 1640 (Quality Biological, Gaithersburg, Md.) supplemented with 10% fetal bovine serum (Sterile Systems, Logon, UT) and 2mM L-glutamine (Central Medium Laboratory, NCI FCRF). Cell cultures were passaged once or twice weekly using trypsin-EDTA(Central Medium Laboratory, NCI-FCRF) to detach the cells from their culture flasks. […]
(§3) Cellular growth in the presence or absence of the test compound was determined using the MTT-microculture tetrazolium assay. In the MTT assay rapidly growing cells are harvested, counted and inoculated at the appropriate concentrations (100-μl volume) into 96-well microtiter plates using a multichannel pipet. […]

A further experiment deals with SN-12KI. Briefly: MTT-microculture tetrazolium assay, growth inhibition of renal SN-12KI cells. The class given is cell-based. The settings on record: Homo sapiens, 144 h; Renal cell line SN-12KI; 6 days at 37° C.; 0.5% DMSO.
Description: as §1, §2, §3
For orientation: Formazan colour is commonly taken as a measure of viable cells.

In experiment [1] the test system is cell lines derived from renal carcinomas. Put plainly: MTT-microculture tetrazolium assay, growth inhibition of cell lines derived from renal carcinomas. It counts as cell-based, human. The settings on record: at the indicated concentrations; 6 days at 37° C.
Description: as §1, §2, §3

The test system of another experiment is A704. Put plainly: MTT-microculture tetrazolium assay, growth inhibition of renal A704 cells. It counts as cell-based. The settings on record: Homo sapiens, 144 h; Renal cell line A704; 6 days at 37° C.; 0.5% DMSO.
Description: as §1, §2, §3

Consider `CS(=O)(=O)NCCN[C@@H]1CCN2CCc3c(oc4ccccc34)[C@@H]2C1` (relative stereo) [(2RS,12bSR)-N-[2-(1,3,4,6,7,12b-hexahydro-2H-benzo[b]furo[2,3-a]quinolizin-2-yl)]-N-2-((methanesulfonyl)ethyl)amine], for which the IC50 in the experiment with A498 amounted to 1600 nM; in the experiment with SN-12KI, 6300 nM; in the experiment with A704 it was 160 nM. For the same compound, in experiment [1], the “growth inhibition of cell lines derived from renal carcinomas (in words)” value is “selectively inhibit the growth of cell lines derived from renal carcinomas”.

As a reminder, the IC50 is the point on the concentration scale where inhibition reaches its midpoint. Read a low IC50 as greater potency in that assay.
